For experiment [1], the system named is MT4. Kind of experiment: Concentration required to protect MT-4 cells against the cytopathogenicity of HIV-1 IIIB. In kind it is functional, cell-based. The following applies: Homo sapiens. A general note: Protection from cytopathic effect is a common read-out in antiviral testing.
Experiment [2] relates to MT4. Kind of experiment: Concentration required to inhibit the proliferation of uninfected MT-4 cells. In kind it is functional. Conditions: Homo sapiens.

Structures are written as SMILES.

On to `Cc1[nH]c(C(=O)NCCCN=C(N)N)cc2c3ccccc3nc1-2`, for which, in experiment [1], the EC50 (usually the concentration that produces a half-maximal response) was not below 50 µM. For the same compound, the 50% cytotoxic concentration (CC50) (usually the concentration that lowers cell viability or growth by half) in experiment [2] is more than 100 µM.
As to `N=C(N)NCCCNC(=O)c1cc2c3ccccc3nc-2c[nH]1`, the EC50 in experiment [1] is not below 50 µM. Further, the CC50 in experiment [2] was more than 1000 µM.
The matching figures for `NCCCNC(=O)c1cc2c3ccccc3nc-2c[nH]1`: more than 1000 µM and more than 1000 µM.
Regarding `Cc1[nH]c(C(=O)NCCCN)cc2c3ccccc3nc1-2`, the concentration giving a half-maximal response (EC50) in experiment [1] was more than 100 µM. The same compound gave a CC50 in experiment [2] of more than 100 µM.

For the origin of these results see ChEMBL document CHEMBL1146788, “Synthesis and biological evaluation of novel beta-carboline derivatives as Tat-TAR interaction inhibitors” (Bioorg Med Chem Lett, 2004).
